The values that follow come from PMC8280112, “Substrate reduction therapy for Krabbe disease and metachromatic leukodystrophy using a novel ceramide galactosyltransferase inhibitor” (Scientific Reports, 2021).

A word on the IC50: it is the midpoint of a concentration-inhibition curve. High values mean a need for much substance, low ones inhibition by little substance.

The test system of data set [1] is GalCer and psychosine levels. In words: Twitcher mouse brain psychosine and galactosylceramide analysis. The settings on record: Twitcher mice treated PND3-PND28. The format is in vivo. On the procedure:
(§1) Mice heterozygous for the Twitcher mutation on the congenic C57BL/6 background were originally purchased from The Jackson Laboratories (stock #000845). Homozygous GALC −/− animals were generated from heterozygous mating. Genotypes were determined on PND1 by PCR as previously described[43],[44]. Animals that died prior to weaning on PND28 were excluded from the study unless otherwise noted. Animals were euthanized when they became moribund as defined by any of the following: losing 25% of their maximal body weight, ataxia severe enough to impair ability to eat or drink, or lack of response to tactile stimulus. Animals used for tissue collection were euthanized by anesthetic overdose and perfused transcardially with PBS for three min. Animals for lifespan analysis were euthanized using CO2 compressed gas delivered at 10–30% chamber volume displacement per min. […] Tissues were harvested and flash frozen in liquid nitrogen.
Galactosylsphingosine (psychosine), and galactosylceramide were measured by tandem mass spectrometry as previously described. Briefly, tissue samples were homogenized in 0.04 M citric acid. Internal controls in 200 µL methanol were added to 50 µL of each sample. […] Galactosylsphingosine and galactosylceramide were detected using MRM on an AB SCIEX 4000QTRAP tandem mass spectrometer using ESI in the positive ion mode. […]

Another data set addresses T1, UGT1A (Homo sapiens, UniProt P22309).
T1 construct: purchased Eurofins Panlabs Taiwan, Ltd. ITEM 196000
T1 sequence (P22309 26-533): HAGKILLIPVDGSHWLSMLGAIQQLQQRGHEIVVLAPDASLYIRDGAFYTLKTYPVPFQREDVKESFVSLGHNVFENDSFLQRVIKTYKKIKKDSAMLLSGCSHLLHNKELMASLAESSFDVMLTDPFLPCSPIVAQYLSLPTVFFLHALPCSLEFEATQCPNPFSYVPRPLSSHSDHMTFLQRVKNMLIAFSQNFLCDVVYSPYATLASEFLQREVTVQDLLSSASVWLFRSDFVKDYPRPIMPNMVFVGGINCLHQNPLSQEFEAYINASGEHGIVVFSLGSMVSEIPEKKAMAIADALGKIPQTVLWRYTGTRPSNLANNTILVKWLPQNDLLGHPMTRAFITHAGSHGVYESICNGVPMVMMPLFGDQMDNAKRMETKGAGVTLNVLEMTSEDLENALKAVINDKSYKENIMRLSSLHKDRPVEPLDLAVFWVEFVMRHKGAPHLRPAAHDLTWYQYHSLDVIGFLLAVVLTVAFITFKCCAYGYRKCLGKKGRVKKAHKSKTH
Nature of the data set: UDP glucuronosyltransferase assay (Eurofins Panlabs). The format is biochemical. On the procedure:
UGT1A activity was evaluated at Eurofins Panlabs Taiwan, Ltd. ITEM 196000.

The next data set concerns wild-type mice. In words: Low dose treatment of wild-type mice PND3 to PND70: vacuolation. The following applies: PND3 to PND70, 0.15 mg/kg. The format is in vivo, mouse.
For a further data set, the target named is T2, Human CGT (Homo sapiens, UniProt Q16880).
T2 construct: made in house; host or cells: CHO cells expressing UGT8; crude M-PER lysate
T2 sequence (Q16880 21-541): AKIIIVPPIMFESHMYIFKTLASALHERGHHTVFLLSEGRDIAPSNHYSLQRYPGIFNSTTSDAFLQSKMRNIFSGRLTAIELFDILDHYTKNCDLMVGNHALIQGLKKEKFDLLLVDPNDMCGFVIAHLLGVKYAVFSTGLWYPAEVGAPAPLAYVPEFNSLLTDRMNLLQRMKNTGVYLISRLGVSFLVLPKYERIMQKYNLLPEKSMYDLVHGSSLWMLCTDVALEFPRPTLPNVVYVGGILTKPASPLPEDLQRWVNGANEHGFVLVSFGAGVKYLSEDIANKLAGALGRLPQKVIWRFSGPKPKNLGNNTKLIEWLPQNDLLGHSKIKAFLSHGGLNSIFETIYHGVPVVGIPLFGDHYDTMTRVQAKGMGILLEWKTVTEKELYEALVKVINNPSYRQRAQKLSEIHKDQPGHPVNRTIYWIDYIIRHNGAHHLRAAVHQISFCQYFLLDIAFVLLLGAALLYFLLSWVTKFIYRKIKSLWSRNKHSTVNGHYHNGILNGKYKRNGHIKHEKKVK
Nature of the data set: CGT enzyme assay (cell-lysate assay). The settings on record: lysate of CHO cells expressing human UGT8. The format is biochemical. As to the method: Human CGT was obtained from a cell lysate from CHO cells expressing UGT8 (made by BioMarin) prepared in M-PER with proteinase inhibitors (Sigma). Compounds, serially diluted in DMSO and Tween 80, were added to 4 µg/well of CHO/CGT cell lysate to make 20 µL final reaction volume containing 0.5% DMSO and 0.01% Tween 80 in the reaction buffer consisting of 10 µM NDB-(2R-OH)-C6 ceramide (made by BioMarin), 17.5 µM UDP-Galactose (Sigma), 35 µM of dioleoylphosphatidylcholine (DOPC), 5 mM MgCl2, 5 mM MnCl2, 1% BSA, 15 mM KCl, 1 mM EGTA, 8 mM CHAPS, 10 mM HEPES–NaOH pH 7.2. The reaction was incubated at 37 °C for 1 h and stopped by adding 80 µL of methanol:acetonitrile (1:3) with 5 µM N-dodecanoyl-NBD-galactosylceramide (Matreya) internal standard (IS) for 30 min. 200 µL H2O:ACN (1:1) was added for 5 min and then centrifuged at 4000 rpm for 38 min at RT before quantifying NDB-(2R-OH)-C6-galactosylceramide (BioMarin) by LC–MS on a Rapid Fire 360 mass spectrometer (Agilent) coupled with a API4000 + MS in electrospray ionization (ESI) negative mode (Applied Biosystems). These assay conditions were used to screen the Bio-active lipid library (Cayman Cat# 10506).

The next data set relates to Twitcher mice. In words: Twitcher mouse survival. The format is in vivo. The following applies: for median survival: IP three times per week. On the procedure: as §1
Data set [2] deals with Sphingomyelin synthase (SMS). In words: Sphingomyelin synthase assay. The format is biochemical. The settings on record: MDCK cell lysate. On the procedure: 100 µL assay buffer (50 mM Tris buffer pH 7.5 containing 25 mM KCl, 0.5 mM EDTA, 10 µM NBD-C6 ceramide, 100 µM DOPC, and 0.01% Tween 80), 60 µg MDCK cell lysate, and serial diluted compounds were incubated at 37 ℃ for 1 h. The reaction was terminated and prepared for LC–MS using the same protocol as the GCS assay, however, a NBD-C6-sphingomyelin (Avanti) reference standard was used to quantify the sphingomyelin synthesis.

Take `C[C@H]1N(c2ccc(Br)cc2)C(=O)N(c2ccc(Br)cc2)C1(O)c1cccc(OC(F)(F)F)c1` (stereo partly drawn) [S202]: the “non-hydroxy-GalCer in the brain” value in data set [1] is “dose-dependent reduction”. Moreover, the “psychosine levels in the brain” value in data set [1] is reported as “reduced to the same extent as the non-hydroxy-GalCer”. Besides, the IC50 against UGT1A is greater than 30 µM; on Human CGT, 0.015 µM; in data set [2] it was greater than 50 µM. Besides, the “vacuolation in brain, spine and sciatic nerve” value in the data set on wild-type mice is listed as “vacuolation was observed in a similar pattern, but was much less severe”. Besides, the median survival with Twitcher mice (PND3 start, 0.15 mg/kg) is recorded as 60 days; with Twitcher mice (PND15 start, 5.0 mg/kg), ~ 63 days. In the data set on Twitcher mice (PND3 start, highest dose tested (1.5 mg/kg)), the effect on lifespan entry is “reduced lifespan”.
